Row | Structure (SMILES) | melting point
1 | CC1SC(=O)NN=C1c1ccc2c(c1)CCCN2 (stereo not drawn) [Example 2] | 176 to 178 °C
2 | CCNC(=O)N1CCCc2cc(C3=NNC(=O)SC3C)ccc21 (stereo not drawn) [Example 3] | 122 to 124 °C (dec.)
3 | CCCNC(=O)N1CCCc2cc(C3=NNC(=O)SC3C)ccc21 (stereo not drawn) [Example 4] | 151 to 153 °C
4 | CCCCNC(=O)N1CCCc2cc(C3=NNC(=O)SC3C)ccc21 (stereo not drawn) [Example 5] | 133 to 134 °C
5 | CC1SC(=O)NN=C1c1ccc2c(c1)CCCN2C(=O)Nc1ccccc1 (stereo not drawn) [Example 6] | 213 to 214 °C (dec.)
6 | CC1SC(=O)NN=C1c1ccc2c(c1)CCCN2C(=O)Nc1ccc(Cl)cc1 (stereo not drawn) [Example 7] | 218 to 220 °C (dec.)
7 | CC1SC(=O)NN=C1c1ccc2c(c1)CCCN2C(=O)Nc1cccc2ccccc12 (stereo not drawn) [Example 8] | 165 to 166 °C (dec.)
8 | Cc1ccccc1NC(=O)N1CCCc2cc(C3=NNC(=O)SC3C)ccc21 (stereo not drawn) [Example 9] | 153 to 154 °C
9 | CC1SC(=O)NN=C1c1ccc2c(c1)CCCN2C(=O)NCc1ccc(F)cc1 (stereo not drawn) [Example 10] | 158 to 160 °C
10 | CC1SC(=O)NN=C1c1ccc2c(c1)CCCN2C(=O)c1ccco1 (stereo not drawn) [Example 11] | 159 to 161 °C

Results, then the compound that gave them:

Row | melting point | Structure (SMILES)
11 | 202 to 204 °C | CC1SC(=O)NN=C1c1ccc2c(c1)CCCN2C(=O)c1ccccc1 (stereo not drawn) [Example 13]
12 | 188 to 189 °C | CC1SC(=O)NN=C1c1ccc2c(c1)CCCN2C(=O)Cc1c(Cl)cccc1Cl (stereo not drawn) [Example 14]
13 | 148 to 150 °C (dec.) | CC1SC(=O)NN=C1c1ccc2c(c1)CCCN2C(=O)C1CCCCC1 (stereo not drawn) [Example 16]
14 | 172 to 174 °C | CC1SC(=O)NN=C1c1ccc2c(c1)CCCN2C(=O)CCc1ccccc1 (stereo not drawn) [Example 17]
15 | 190 to 191 °C | CC1SC(=O)NN=C1c1ccc2c(c1)CCCN2C(=O)c1cccs1 (stereo not drawn) [Example 18]

From patent publication US6699857B1, “Tetrahydroquinolinyl 6-methyldihydrothiadiazinone derivatives and use thereof” (Bayer Aktiengesellschaft, priority 1999, dated 2004)
